Experimental data from US20260209211A1, “CYCLIN K DEGRADER AND USE THEREOF” (ADLAI NORTYE BIOPHARMA CO., LTD., priority 2022, published 2026).
Where two headings read alike, the source gives them in different places.

Experiments:
Assay type in all cases: cell-based
[1] = tested on: NCI-N87 (Human Gastric Cancer Cell); test: Bioactivity detection of NCI-N87 cell growth inhibition (CellTiter-Glo); conditions: NCI-N87 cells, 72 hours, highest concentration 10 μM, read-out: N87 CTG IC50
Procedure: This detection method is used to evaluate the biological activity of the compounds described in this disclosure at the cellular level.
(§1) NCI-N87 cells (purchased from the Chinese Academy of Sciences) were harvested, resuspended in complete medium and adjusted to a cell density of 0.1×10^6 cells per ml. The cell suspension was added to a 96-well plate at a volume of 100 μL per well and cultured overnight in a 37° C., 5% CO2 incubator. Prepare the test compound and add it to the cell plate so that the highest concentration of the compound is 10 μM. Set 8 concentration points according to 3-fold dilution. At the same time, 100% inhibition control wells were set, that is, wells with no cells but only an equal volume of complete culture medium; and 0% inhibition control wells, that is, wells with cells added with 0.1% DMSO. The cell plate was cultured at 37° C. and 5% CO2 for 72 hours. Remove the cell culture plate and add 25 μl CellTiter-Glo Luminescent Cell Viability Reagent (promega cat #G7573) to each well. Incubate in the dark for 10 minutes and then transfer 100 μL to a white plate and use Molecular Devices SpectraMax i3 to detect chemiluminescence. The inhibition rate was calculated using the following formula for data processing: compound inhibition rate=(0% inhibition control well signal−compound treatment well signal)/(0% inhibition control well signal−100% inhibition control well signal)*10000. The calculated data were fitted with four parameters using GraphPad Prism software and the corresponding IC50 was calculated.

Cyclin K (CCNK) = target: T1, Cyclin K (CCNK) (Homo sapiens, UniProt O75909+Q9NYV4); test: Western blot analysis of Cyclin K (CCNK) degradation in HEK293 cells; conditions: 6 h, different concentrations, compared with the control (FIG. 1)
T1 construct: host or cells: HEK293
Procedure: HEK293 cells (ATCC, cat #CRL-1573) were harvested and the cell density was adjusted to 1×10^6 cells per ml. 1 ml of cell suspension was plated into each well of a 6-well plate and cultured overnight. The compound stock solution was taken and diluted with DMSO to the appropriate concentration. The diluted compounds were added to the cell wells at a ratio of 1:1000 using culture medium to ensure that the DMSO concentration in each well was 0.1%. Negative control wells were also set up, which contained complete medium containing 0.1% DMSO. After treatment with the compounds at the concentrations indicated in the figures and at different times, total cell protein was extracted using RIPA cell lysis buffer (Beyotime, cat #P0013B) containing PMSF. After protein quantification using the BCA protein quantification kit (Thermo Fisher, cat #A53225), each sample was loaded with 40 μg for subsequent SDS-PAGE and western blot experiments. The specific conditions are as follows: after running the gel at a constant voltage of 120 V for 90 minutes, transfer the membrane at a constant current of 320 mA for 60 minutes. Incubate the antibodies according to the recommended dilution ratio and incubation time. The antibody information used in the experiment is as follows: Anti-GAPDH antibody (abcam, cat #ab9485), Anti-Cyclin K antibody (abcam, cat #ab85854), Goat anti-Rabbit IgG (H+L) Cross-Adsorbed Secondary Antibody, HRP (invitrogen, cat #G-21234). ECL luminescent solution (Thermo Fisher, cat #32209) was used for color development. The final results were analyzed using a gel imaging system.
According to the above detection method, some compounds described in the present disclosure were evaluated.

[2] = tested on: HGC27 (Human Gastric Cancer Cell); test: Bioactivity assay for HGC27 cell growth inhibition (CellTiter-Glo); conditions: read-out: HGC27 CTG IC50
Procedure: This detection method is used to evaluate the biological activity of the compounds of the present disclosure at the cellular level.
as §1, with “HGC27” for “NCI-N87”, “0.2×10^6” for “0.1×10^6”, “24” for “72”, “CellTiter-Glo®” for “CellTiter-Glo”, “signal)*100%.” for “signal)*10000.”

[3] = HGC-27, HGC27 cells, 24 hours, CellTiter-Glo, highest concentration 10 μM

T1 sequence (O75909 whole entry): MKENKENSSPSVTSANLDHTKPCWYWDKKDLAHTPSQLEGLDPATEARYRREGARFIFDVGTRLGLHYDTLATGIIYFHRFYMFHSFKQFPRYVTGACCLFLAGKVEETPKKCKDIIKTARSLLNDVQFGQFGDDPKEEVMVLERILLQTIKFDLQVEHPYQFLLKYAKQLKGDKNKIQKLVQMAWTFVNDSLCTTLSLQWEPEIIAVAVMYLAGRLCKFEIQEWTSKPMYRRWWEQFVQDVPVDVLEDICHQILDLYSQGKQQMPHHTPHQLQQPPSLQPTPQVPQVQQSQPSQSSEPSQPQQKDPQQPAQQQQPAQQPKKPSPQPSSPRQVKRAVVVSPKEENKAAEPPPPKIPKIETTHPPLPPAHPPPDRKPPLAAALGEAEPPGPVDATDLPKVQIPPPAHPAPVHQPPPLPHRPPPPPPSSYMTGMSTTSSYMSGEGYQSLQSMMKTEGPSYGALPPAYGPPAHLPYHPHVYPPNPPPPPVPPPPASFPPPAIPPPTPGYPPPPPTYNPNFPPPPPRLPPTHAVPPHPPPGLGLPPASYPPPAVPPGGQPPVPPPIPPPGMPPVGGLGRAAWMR
T1 sequence (Q9NYV4 whole entry): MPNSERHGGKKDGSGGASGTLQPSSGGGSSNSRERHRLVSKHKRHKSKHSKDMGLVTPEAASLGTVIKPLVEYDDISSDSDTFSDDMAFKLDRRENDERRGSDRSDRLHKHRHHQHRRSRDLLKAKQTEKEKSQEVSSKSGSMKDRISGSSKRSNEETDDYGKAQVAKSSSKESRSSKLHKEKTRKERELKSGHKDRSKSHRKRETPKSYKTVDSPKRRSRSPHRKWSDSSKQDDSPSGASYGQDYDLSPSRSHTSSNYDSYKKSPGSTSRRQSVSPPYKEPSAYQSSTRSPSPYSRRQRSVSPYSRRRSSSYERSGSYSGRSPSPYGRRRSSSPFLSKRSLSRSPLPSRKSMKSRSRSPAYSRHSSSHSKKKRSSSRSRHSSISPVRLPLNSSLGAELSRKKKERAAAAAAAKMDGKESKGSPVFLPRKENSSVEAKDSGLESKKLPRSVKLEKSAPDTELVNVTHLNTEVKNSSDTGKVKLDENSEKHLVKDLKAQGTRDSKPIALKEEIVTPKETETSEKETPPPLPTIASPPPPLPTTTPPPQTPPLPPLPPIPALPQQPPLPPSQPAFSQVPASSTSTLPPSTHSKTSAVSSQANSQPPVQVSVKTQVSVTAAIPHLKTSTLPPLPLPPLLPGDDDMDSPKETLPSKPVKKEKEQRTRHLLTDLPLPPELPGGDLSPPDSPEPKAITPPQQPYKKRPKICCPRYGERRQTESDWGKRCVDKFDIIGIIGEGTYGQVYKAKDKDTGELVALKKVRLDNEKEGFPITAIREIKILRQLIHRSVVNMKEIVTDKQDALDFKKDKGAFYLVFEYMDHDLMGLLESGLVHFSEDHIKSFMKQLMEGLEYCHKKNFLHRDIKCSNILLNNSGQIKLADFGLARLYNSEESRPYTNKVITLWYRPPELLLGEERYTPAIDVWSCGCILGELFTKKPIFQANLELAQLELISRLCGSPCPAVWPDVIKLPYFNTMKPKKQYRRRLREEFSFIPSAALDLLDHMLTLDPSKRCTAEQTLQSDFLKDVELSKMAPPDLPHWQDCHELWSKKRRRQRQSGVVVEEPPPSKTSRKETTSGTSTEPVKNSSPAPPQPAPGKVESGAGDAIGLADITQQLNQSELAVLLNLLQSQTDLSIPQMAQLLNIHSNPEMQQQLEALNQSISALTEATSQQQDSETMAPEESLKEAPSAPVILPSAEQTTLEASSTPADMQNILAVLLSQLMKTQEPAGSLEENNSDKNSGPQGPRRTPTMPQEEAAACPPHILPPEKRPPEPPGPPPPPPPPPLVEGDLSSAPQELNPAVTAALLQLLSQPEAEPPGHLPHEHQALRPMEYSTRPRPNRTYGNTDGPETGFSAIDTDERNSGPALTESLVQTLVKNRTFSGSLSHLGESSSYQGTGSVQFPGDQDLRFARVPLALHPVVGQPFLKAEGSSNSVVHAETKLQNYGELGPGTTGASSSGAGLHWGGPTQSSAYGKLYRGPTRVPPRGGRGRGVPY

IC50 [1] [nM]	IC50 [2, 3] [nM]	Compound	degradation of Cyclin K (western blot) (Cyclin K (CCNK))	IC50 ([2]; HGC-27, 24 h) [nM]
7.5	25	C[C@@H](O)[C@@H](C)Oc1nc(NCc2ccc3c(c2)[nH]c2c(CO)ccnc23)ncc1C(F)(F)F [Compound 12]	significantly induce the degradation of Cyclin K	–
3.1	68	CC[C@@H](Nc1nc(NCc2ccc3c(c2)[nH]c2c(CO)ccnc23)ncc1C(F)(F)F)C(N)=O [Compound 17]	significantly induce the degradation of Cyclin K	–
< 1	8	C[C@@H](O)[C@@H](C)Nc1nc(NCc2ccc3c(c2)[nH]c2c(CO)ccnc23)ncc1C(F)(F)F [Compound 18]	significantly induce the degradation of Cyclin K	–
3	6	C[C@@H](O)[C@@H](CO)Nc1nc(NCc2ccc3c(c2)[nH]c2c(C#N)ccnc23)ncc1C(F)(F)F [Compound 73]	–	–
75	128	CO[C@@H](C)[C@@H](Nc1nc(NCc2ccc3c(c2)[nH]c2c(CO)ccnc23)ncc1C#N)C(N)=O [Compound 74]	–	–
22	38	OCc1ccnc2c1[nH]c1cc(CNc3ncc(C(F)(F)F)c(N[C@@H]4CNCC[C@@H]4O)n3)ccc12 [Compound 75]	–	–
61	151	OCc1ccnc2c1[nH]c1cc(CNc3ncc(C(F)(F)F)c(N[C@@H]4CCNC[C@@H]4O)n3)ccc12 [Compound 77]	–	–
120	244	OCc1ccnc2c1[nH]c1cc(CNc3ncc(C(F)(F)F)c(N[C@@H]4CNC[C@@H]4O)n3)ccc12 [Compound 78]	–	–
9	38	CO[C@@H](C)[C@@H](Nc1nc(NCc2ccc3c(c2)nn2c(CO)ccnc32)ncc1C(F)(F)F)C(N)=O [Compound 79]	–	–
5.4	41	OCc1ccnc2c3ccc(CNc4ncc(C(F)(F)F)c(N[C@@H]5CNCC[C@@H]5O)n4)cc3nn12 [Compound 80]	–	–
6	28	CO[C@@H](C)[C@@H](Nc1nc(NCc2ccc3c(c2)[nH]c2c(CO)ccnc23)ncc1C(F)(F)F)C(N)=O [Compound 82]	–	–
8	8	Cc1ccnc2c1[nH]c1cc(CNc3ncc(C(F)(F)F)c(N[C@@H]4CNCC[C@@H]4O)n3)ccc12 [Compound 83]	–	–
85	409	CC[C@@H](Oc1nc(NCc2ccc3c(c2)[nH]c2c(CN)ccnc23)ncc1C(F)(F)F)C(N)=O [Compound 84]	–	–
4	6	N#Cc1ccnc2c1[nH]c1cc(CNc3ncc(C(F)(F)F)c(N[C@@H]4CNC[C@@H]4O)n3)ccc12 [Compound 86]	–	–
12	12	N#Cc1ccnc2c1[nH]c1cc(CNc3ncc(C(F)(F)F)c(N[C@@H]4CN(C(=O)CN)CC[C@@H]4O)n3)ccc12 [Compound 87]	–	–
2	2	CN1CC[C@H](O)[C@H](Nc2nc(NCc3ccc4c(c3)[nH]c3c(C#N)ccnc34)ncc2C(F)(F)F)C1 [Compound 88]	–	–
2.9	2	N#Cc1ccnc2c1[nH]c1cc(CNc3ncc(C(F)(F)F)c(N[C@@H]4CCNC[C@@H]4O)n3)ccc12 [Compound 89]	–	–
6	4.9	C[C@@H](N)[C@@H](C)Oc1nc(NCc2ccc3c(c2)[nH]c2c(CO)ccnc23)ncc1C(F)(F)F [Compound 90]	–	–
5.3	14	N#Cc1ccnc2c1[nH]c1cc(CNc3ncc(C(F)(F)F)c(O[C@@H]4CNC[C@@H]4O)n3)ccc12 [Compound 91]	–	–
4.1	17	Cn1c2cc(CNc3ncc(C(F)(F)F)c(N[C@@H]4CNCC[C@@H]4O)n3)ccc2c2nccc(C#N)c21 [Compound 93]	–	–
3.7	9	N#Cc1ccnc2c1[nH]c1cc(CNc3ncc(C(F)(F)F)c(N[C@@H]4CN(CCO)CC[C@@H]4O)n3)ccc12 [Compound 94]	–	–
6.6	43	COc1ccnc2c1[nH]c1cc(CNc3ncc(C(F)(F)F)c(N[C@@H](C(N)=O)[C@H](C)OC)n3)ccc12 [Compound 97]	–	–
2	7	C[C@@H](O)[C@@H](C)Nc1nc(NCc2ccc3c(c2)[nH]c2c(C#N)ccnc23)ncc1C(F)(F)F [Compound 98]	–	–

Compound	IC50 [1] [nM]	IC50 [2, 3] [nM]	degradation of Cyclin K (western blot) (Cyclin K (CCNK))	IC50 ([2]; HGC-27, 24 h) [nM]
N#Cc1ccnc2c1[nH]c1cc(CNc3ncc(C(F)(F)F)c(N[C@@H]4CNCC[C@@H]4O)n3)ccc12 [Compound 81]	0.8	–	–	2
N#Cc1ccnc2c1[nH]c1cc(CNc3ncc(C(F)(F)F)c(N[C@@H]4CNCC[C@H]4O)n3)ccc12 [Compound 85]	8.5	–	–	17
C[C@@H](O)[C@H](Nc1nc(NCc2ccc3c(c2)[nH]c2c(C#N)ccnc23)ncc1C(F)(F)F)C(N)=O [Compound 95]	8	–	–	3
